The values that follow are results of earlier work, collected in patent publication US6436649B1, “Method for detecting and/or quantifying a hapten in a homogeneous phase and device for implementation thereof” (priority 1996, dated 2002).

For orientation: Km means the concentration of substrate that gives half-maximal velocity. A word on the Ki: it is the dissociation constant of the complex between target and ligand, obtained from inhibition or displacement.

Structures are written as SMILES.

One data set deals with E. Coli β-lactamase (Escherichia coli, UniProt P00811). Conditions: enzyme E. Coli; cited from earlier work.
The subject of data set [1] is T1, type C β-lactamases.
T1 construct: rows headed: Km; kcat
Conditions: selected inhibitors, over the β-lactamases; cited from earlier work.

The target in a further data set is P99/Q908R β-lactamases (Enterobacter cloacae, UniProt P05364). Conditions: enzyme P99/Q908R; cited from earlier work.
In data set [2] the test system is P99/Q908R/Citro.F. β-lactamases. Conditions: enzymes P99/Q908R/Citro.F.; cited from earlier work.
Data set [3] deals with T2, type C β-lactamases (Enterobacter cloacae, UniProt P05364).
T2 construct: Ki
Conditions: Ki of the parent inhibitor; cited from earlier work.

For data set [4], the system named is P99/Q908E/E. Coli β-lactamases. Conditions: enzymes P99/Q908E/E. Coli; cited from earlier work.

Chain of E. Coli β-lactamase (P00811 20-377): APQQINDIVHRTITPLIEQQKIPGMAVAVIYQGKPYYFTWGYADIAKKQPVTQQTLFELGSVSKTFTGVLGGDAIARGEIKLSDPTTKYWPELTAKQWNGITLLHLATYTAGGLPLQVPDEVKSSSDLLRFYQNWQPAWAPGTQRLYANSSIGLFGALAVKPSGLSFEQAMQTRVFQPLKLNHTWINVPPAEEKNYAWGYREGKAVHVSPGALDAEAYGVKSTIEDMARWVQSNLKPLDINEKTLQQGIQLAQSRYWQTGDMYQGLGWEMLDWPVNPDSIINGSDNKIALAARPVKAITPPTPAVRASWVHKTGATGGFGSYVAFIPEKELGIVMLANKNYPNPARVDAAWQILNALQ

`CO/N=C(\C(=O)N[C@@H]1C(=O)N2C(C(=O)O)=C(COC(N)=O)CS[C@H]12)c1ccco1` [Cefuroxime]: the Km is 0.15 µM at E. Coli β-lactamase, 0.02 µM in the data set with type C β-lactamases [1] and 0.02 µM on P99/Q908R β-lactamases. Moreover, the results for the kcat at E. Coli β-lactamase and at P99/Q908R β-lactamases were 0.15 S^−1 and 0.04 S^−1, respectively.
As for `CC1(C)S[C@@H]2[C@H](NC(=O)Cc3ccccc3)C(=O)N2[C@H]1C(=O)O` [Benzylpenicillin], at E. Coli β-lactamase, the Km is 4.4 µM and the kcat is 45 S^−1. In data set [2], the Michaelis-Menten constant (Km) was 0.5 µM and the kcat is 20 S^−1.
For the molecule `Cc1onc(-c2ccccc2)c1C(=O)N[C@@H]1C(=O)N2[C@@H]1SC(C)(C)[C@@H]2C(=O)O` [Oxacillin], on type C β-lactamases [3], the Ki is 0.5 nM. Besides, the kcat in the data set with type C β-lactamases [1] is 0.005 s⁻¹. In data set [4], the Km was 0.0005 µM and the kcat is reported as 0.005 S^−1.
